Source: patent EP1724268A1, “COMPOUND HAVING TGF-BETA INHIBITORY ACTIVITY AND PHARMACEUTICAL COMPOSITION CONTAINING SAME” (KIRIN BEER KABUSHIKI KAISHA, priority 2004, dated 2005)
Where two headings read alike, the source gives them in different places.

Tested on: TGFβ signal
Experiment: TGFβ signal inhibitory activity, (SBE)4-Luc reporter in A549 cells (Test Examples 1A and 1B)
Format: cell-based, human
Details: Homo sapiens, A549, read-out: TGFβ inhibition rate, %; for inhibition at 1 µM: test compound 1 µM
In short: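 Stable A549 line carrying (SBE)4-Luc Smad3-binding reporter treated with compound plus TGFβ-1 (2 ng/ml) for 4 hr; luciferase read by chemiluminescence. Percent inhibition relative to TGFβ-only and untreated cells, tested at 3 µM and 10 µM, some also at 1 µM.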

[1] = test compound 3 µM, Reference Examples, Table 1B
[2] = test compound 10 µM, Reference Examples, Table 1B
[3] = 3 µM, compounds of Reference Examples (Test Example 1B)
[4] = 10 µM, compounds of Reference Examples (Test Example 1B)
[5] = test compound 3 µM, TGFβ-1 2 ng/ml, 4 hr, Table 1A
[6] = test compound 10 µM, TGFβ-1 2 ng/ml, 4 hr, Table 1A

SMILES | inhibition at 3 µM [3] | inhibition at 10 µM [4] | inhibition at 3 µM [5] | other results
COc1cc2nccc(Oc3ccccc3C(=O)OCC(C)C)c2cc1OC [Compound r97] |  |  |  | inhibition at 3 µM [1]: 14%; inhibition at 10 µM [2]: 92%
COc1cc2nccc(Oc3ccc(C)nc3C(OC(C)=O)c3ccccc3)c2cc1OC (stereo not shown) [r218] | 21% | 56% |  | 
COc1cc2nccc(Oc3ccc4ccccc4c3C=O)c2cc1OC [Compound r27] |  |  |  | inhibition at 3 µM [1]: 0%; inhibition at 10 µM [2]: 93%
CCOC(=O)c1ccccc1Oc1ccnc2cc(OC)c(OC)cc12 [Compound r80] |  |  |  | inhibition at 3 µM [1]: 62%; inhibition at 10 µM [2]: 95%
Cc1cc(Oc2ccnc3ccc(-c4cccn4C(=O)OC(C)(C)C)cc23)c(-c2ccccn2)nc1C [Compound 167, 2-[4-(5,6-Dimethyl-[2,2']bipyridinyl-3-yloxy)-quinolin-6-yl]-pyrrole-1-carboxylate tert-butyl ester] |  |  | 35% | inhibition at 10 µM [6]: 85%
COc1cc2c(Oc3cc4ccccc4nc3C(C)=O)ccnc2cc1OCC(O)CO (stereo not shown) [Compound r395] | 96% | 100% |  | 
COc1cc2ncnc(Oc3cc4cccnc4nc3-c3ccccc3)c2cc1OC [r436] | 99% | 100% |  | 
CCC(=O)c1cccc(F)c1Oc1ccnc2cc(OC)c(OC)cc12 [r43] |  |  |  | inhibition at 3 µM [1]: 0%; inhibition at 10 µM [2]: 66%
COc1cc2c(Oc3cc(C)c(C)nc3-c3ccccn3)ccnc2cc1C(N)=O [Compound 145, 4-(5,6-Dimethyl-[2,2']bipyridinyl-3-yloxy)-6-methgxy-quinoline-7-carboxylic acid amide] |  |  | 78% | inhibition at 10 µM [6]: 100%
Cc1ccc(Oc2ccnc3ccc(OCCCN4CCC(Cc5ccccc5)CC4)cc23)c(-c2ncccn2)n1 [Compound 220, 6-[3-(4-Benzyl-piperidin-1-yl)-propoxy]-4-(6-methyl-2-pyrimidin-2-yl-pyridin-3-yloxy)-quinoline] |  |  | 91% | inhibition at 10 µM [6]: 100%
COc1ccc2ncnc(Oc3cc(C)c(C)nc3-c3ccc(C)cn3)c2c1 [Compound 39, 6-Methoxy-4-(5,6,5'-trimethyl-[2,2']bipyridin-3-yloxy)-quinazoline] |  |  | 88% | inhibition at 10 µM [6]: 99%
COc1cc2c(Oc3cc(C)c(C)nc3-c3cccc(C)n3)ccnc2cc1OCC1CO1 (stereo not shown) [Compound r446] | 35% | 89% |  | 
Cc1cc(Oc2ccnc3cc(-c4cc5ccccc5o4)ccc23)c(-c2ccccn2)nc1C [Compound 173, 3-(7-Benzofuran-2-yl-quinolin-4-yloxy)-5,6-dimethyl-[2,2']bipyridine] |  |  | 57% | inhibition at 10 µM [6]: 92%
COc1cc2c(Oc3cc4cccnc4nc3C)ccnc2cc1OCC(O)CO (stereo not shown) [Compound r403] | 27% | 66% |  | 
Cc1cc(Oc2ccnc3cc(-c4ccccc4)sc23)c(-c2ccccn2)nc1C [Compound 29, 5,6-Dimethyl-3-(2-phenyl-thieno[3,2-b]pyridin-7-yloxy)-[2,2']bipyridine] |  |  | 100% | inhibition at 1 µM (TGFβ-1 2 ng/ml, 4 hr, Table 1A): 89%
COc1cc2nccc(Oc3ccc(C)nc3-c3cccc(N)c3)c2cc1OC [Compound r235] | 100% | 100% |  | 
COc1cc2nccc(Oc3ccc(F)nc3)c2cc1OC [r205] | 26% | 57% |  | 
COc1cc2nccc(Oc3ccc(F)cc3C(C)=O)c2cc1OC [r33] |  |  |  | inhibition at 3 µM [1]: 27%; inhibition at 10 µM [2]: 94%
COc1cc2nccc(Oc3ccc(C)nc3-c3ccccc3)c2cc1OC [Compound r223, 6,7-Dimethoxy-4-(6-methyl-2-phenyl-pyridin-3-yloxy)-quinoline] | 99% | 100% |  | 
COc1cc2c(Oc3ccc(C)cc3C(=O)c3ccccc3)ccnc2cc1OCCCCCl [Compound r141] |  |  |  | inhibition at 3 µM [1]: 55%; inhibition at 10 µM [2]: 89%
COc1cc2c(Oc3cc4cccnc4nc3C)ccnc2cc1OCc1ccccc1 [Compound r397] | 71% | 100% |  | 
COc1cc2nccc(Oc3cc(C)c(C(C)C)cc3C(C)=O)c2cc1OC [r183] | 82% | 100% |  | 
COc1cc2nccc(Oc3ccc(Cl)nc3)c2cc1OC [r206] | 69% | 94% |  | 
COc1cc2c(Oc3cc4ccccc4nc3C(C)=O)ccnc2cc1OCC1CO1 (stereo not shown) [Compound r394] | 83% | 100% |  | 
COc1cc2nccc(Oc3ccc(C)nc3I)c2cc1OC [r116] |  |  |  | inhibition at 3 µM [1]: 99%; inhibition at 10 µM [2]: 100%

SMILES | inhibition at 3 µM [3] | inhibition at 10 µM [4] | inhibition at 3 µM [5] | other results
CCCCC(=O)c1cc(C)ccc1Oc1ccnc2cc(OC)c(OC)cc12 [Compound r52] |  |  |  | inhibition at 3 µM [1]: 97%; inhibition at 10 µM [2]: 100%
COc1cc2c(Oc3ccc(C)cc3C(=O)c3ccccc3)ccnc2cc1OCCN1CCN(C)CC1 [Compound r129] |  |  |  | inhibition at 3 µM [1]: 100%; inhibition at 10 µM [2]: 100%
CCOC(=O)c1cc(C(C)=O)ccc1Oc1ccnc2cc(OC)c(OC)cc12 [Compound r88] |  |  |  | inhibition at 3 µM [1]: 70%; inhibition at 10 µM [2]: 94%
COc1cc2nccc(Oc3cc4cccnc4nc3-c3ccccc3)c2cc1OCc1ccccc1 [Compound 123, 3-(6-Benzyloxy-7-methoxy-quinolin-4-yloxy)-2-phenyl-[1,8]naphthyridine] |  |  | 99% | inhibition at 10 µM [6]: 100%
Fc1ccc2nccc(Oc3cc4cccnc4nc3-c3ccccc3)c2c1 [Compound 53, 3-(6-Fluoro-quinolin-4-yloxy)-2-phenyl-[1,8]naphthyridine] |  |  | 83% | inhibition at 1 µM (TGFβ-1 2 ng/ml, 4 hr, Table 1A): 43%
COc1cc2nccc(Oc3cc(C)c(C)nc3-c3ncccn3)c2cc1F [Compound 158, 4-(5,6-Dimethyl-2-pyrimidin-2-yl-pyridin-3-yloxy)-6-fluoro-7-methoxy-quinoline] |  |  | 98% | inhibition at 10 µM [6]: 100%
CCc1ccc(Oc2ccnc3ccccc23)c(-c2ncccn2)n1 [Compound 117, 4-(6-Ethyl-2-pyrimidin-2-yl-pyridin-3-yloxy)-quinoline] |  |  | 96% | inhibition at 10 µM [6]: 100%
COc1cc2c(Oc3cc4cnccc4nc3C)ccnc2cc1OCc1ccccc1 [Compound r406] | 56% | 96% |  | 
COc1cc2nccc(Oc3cc4ccccc4nc3-c3cccc(CO)c3)c2cc1OC [Compound r284, {3-[3-(6,7-Dimethoxy-quinolin-4-yloxy)-quinolin-2-yl]-phenyl}-methanol] | 96% | 100% |  | 
COc1cc2nccc(Oc3cc(C)c(C)cc3C(C)=NNc3ccccn3)c2cc1OC [Compound r194] | 47% | 94% |  | 
COc1cc2c(Oc3cc4ccccc4nc3C)ccnc2cc1OCCCN [Compound r376] | 100% | 100% |  | 
COc1cc2nccc(Oc3cc(C)c(C)nc3-c3ccccn3)c2cc1F [Compound 110, 3-(6-Fluoro-7-methoxy-quinolin-4-yloxy)-5,6-dimethyl-[2,2']bipyridine] |  |  | 100% | inhibition at 10 µM [6]: 100%
COc1cc2nccc(Oc3cc4cccnc4nc3-c3ccc(C)cc3)c2cc1OC [r428] | 67% |  |  | 
COc1cc2c(Oc3ccc(C)cc3C(=O)c3ccccc3)ccnc2cc1OCCCN1CCC(N2CCCC2)CC1 [Compound r136] |  |  |  | inhibition at 3 µM [1]: 90%; inhibition at 10 µM [2]: 100%
COc1cc2c(Oc3cc(C)c(C)nc3-c3ccccc3)ccnc2cc1OCC1CO1 (stereo not shown) [Compound r334] | 99% |  |  | 
FC(F)(F)c1ccc2nccc(Oc3cc4cccnc4nc3-c3ccccc3)c2c1 [Compound 54, 2-Phenyl-3-(6-trifluoromethyl-quinolin-4-yloxy)-[1,8]naphthyridine] |  |  | 76% | inhibition at 10 µM [6]: 99%
CCc1ccc(Oc2ccnc3ccc(OCCNS(C)(=O)=O)cc23)c(-c2ncccn2)n1 [Compound 203, N-{2-[4-(6-Ethyl-2-pyrimidin-2-yl-pyridin-3-yloxy)-quinolin-6-yloxy]-ethyl}-methanesulfonic acid amide] |  |  | 79% | 
CCOC(=O)C1CCN(CCOc2cc3nccc(Oc4cc5ccccc5nc4C)c3cc2OC)CC1 [Compound r363] | 100% | 100% |  | 
COc1cc2nccc(Oc3ccc4[nH]ccc4c3)c2cc1OC [r293] | 65% | 95% |  | 
CCCNC(=O)NCCOc1ccc2nccc(Oc3ccc(CC)nc3-c3ccccn3)c2c1 [Compound 189, 1-{2-[4-(6-Ethyl-[2,2']bipyridinyl-3-yloxy)-quinolin-6-yloxy]-ethyl}-3-propyl-urea] |  |  | 97% | inhibition at 10 µM [6]: 99%
COc1cc2nccc(Oc3cc(C)c(C)nc3-c3ccccn3)c2cc1-c1cccnc1 [Compound 155, 3-(7-Methoxy-6-pyridin-3-yl-quinotin-4-yloxy)-5,6-dimethyl-[2,2']bipyridine] |  |  | 99% | inhibition at 10 µM [6]: 100%
COc1cc2c(Oc3ccc(C)cc3C(=O)c3ccccc3)ccnc2cc1OCCn1ccnc1 [Compound r131] |  |  |  | inhibition at 3 µM [1]: 96%; inhibition at 10 µM [2]: 100%
COc1ccc2ncnc(Oc3cc(C)c(C)nc3-c3ccccn3)c2c1 [Compound 26, 4-(5,6-Dimethyl-[2,2']bipyridin-3-yloxy)-6-methoxy-quinazoline] |  |  | 83% | inhibition at 10 µM [6]: 99%
COc1cc2c(Oc3cc4ccccc4nc3C)ccnc2cc1OCCn1ccnc1 [Compound r368] | 100% | 100% |  | 
COc1cc2nccc(Oc3ccc(Br)cc3C(=O)Nc3ccc(Cl)cc3)c2cc1OC [Compound r108] |  |  |  | inhibition at 3 µM [1]: 0%; inhibition at 10 µM [2]: 73%
